Source: patent publication US20040180959A1, “Gabapentin analogues for fibromy algia and concomitant disorders” (priority 2002, published 2004)

Key:
Type in all cases: in vivo
[1] = test system: mice; experiment: Inverted Screen Test to assess coordination; settings: immediately following the TST
Experimental: Immediately following the TST, mice were also tested in the Inverted Screen Test to assess coordination. Animals were given a 1-minute trial in which they had to climb to the top of the inverted screen or to simply hang on and not fall off.

[2] = test system: Wistar rats; experiment: Water-lick (Vogel) Conflict Test in rats; settings: for Percent of Animals Tested With >20 Shock Episodes / Mean Shock Episodes (1 mA): pretreatment 120 minutes; for Mean Shock Episodes (1 mA): Mean ± SEM
Experimental: In each experiment, naive adult male Wistar rats between 170 to 200 g were randomly divided into groups (N=10-30/group) and deprived of water for 48 hours prior to testing. Food was available on Day 1 and removed 24 hours prior to test Day 2.
Apparatus: The modular operant test cage (Coulbourn Instruments) measures 10.25×12×12 in. The test chambers feature 3 modular bays on each side of the cage for a total of 6 bays. A module optical lickometer is mounted on one side of the chamber 5 cm above the grid floor. The lickometer is used to measure licking-drinking from a water bottle mounted outside the test chamber. A photo beam is piped via glass rods to the tip of the drink tube across a gap at the end of the tube. The animals tongue breaks the beam on each lick. The front and back of the test chamber is made of clear Plexiglas. The front door is covered to reduce distractions from inside the test room. The back of the test chamber is facing a wall, away from the flow of traffic within the testing room and remains uncovered to provide the opportunity for observations during testing. Shocks are delivered using a (Coulbourn) programmable universal shocker calibrated to deliver a 1 mA shock for 1 second through the drink tube.
Procedure: On Day 1, after a 24-hour water deprivation, experimental subjects were placed into the test chambers and allowed to drink unpunished. Drinking was limited to 500 responses or approximately 5 mL of water during a 10 minute session. Immediately following the unpunished drinking session, rats were returned to their home cages, deprived of water for an additional 24 hours and was food deprived. […] After the pretreatment period rats were placed into a test chamber and allowed to drink for 10 minutes. After every 10 licks, rats received a 1-second shock (1 mA) through the drink tube. Thus, a conflict or anxiety-producing situation exists. Rats are motivated to drink; however, they are inhibited by the shock. Anxiety is reflected by the low amounts of drinking. Standard anxiolytic drugs produce effects that allow rats to overcome this behavioral inhibition and drink despite the shock.
All data were analyzed using a Kruskal-Wallis one Way Analysis of Variance on Ranks and Mann-Whitney Rank Sum Tests.
Quantitative Analysis: A quantitative analysis represents the percentage of subjects within a treatment group that receives >20 shock episodes during a test session. This number provides a quantitative comparison regarding the distribution of the responses.
(§1) Compound A was dissolved in water and tested orally as a solution from 0.3 to 100 mg/kg in rats and 3 to 300 mg/kg in mice. Dosages are expressed as the active moiety and were administered in a volume of 1 mL/kg for rats and 10 mL/kg for mice.

[3] = test system: CD-1 mice; experiment: Tail Suspension Test (TST) in mice; settings: 2 hours after treatment
Experimental: The anxiolytic and antidepressant activity of (3S, 4S)-(1-Aminomethyl-3,4-dimethyl-cyclopentyl)-acetic acid (“Compound A”) was assessed using the Tail Suspension Test (TST) in mice, and in the Water-lick (Vogel) Conflict Test (WLC) in rats. The Vogel test is a recognized test procedure for assessing the potential anxiolytic utility. The TST procedure is a behavior despair paradigm used to assess potential antidepressant activity.
The method consisted of suspending mice by a piece of cellophane tape attached to the distal end of the tail for 6 minutes. Animals (CD-1 mice, weighing 22 to 27 g, from Charles River Labs) were tested. The test apparatus was the TST-2™ (ITEM-Labo, Le Kremmlin-Bicetre Cedex, France). Data were analyzed with analysis of variance (ANOVA) and Tukey's Multiple Range Test or Student's t-test.
as §1
The profile of typical […] activity in the TST consists of […]. Compound A and pregabalin were tested concurrently (PO) 2 hours after treatment. Compound A was administered at doses ranging from 3 to 100 mg/kg and pregabalin was tested from 3-300 mg/kg and served as positive control (Table 1). Compound A dose dependently increases immobility with the MED observed at the 3 mg/kg dosage and maximal effects were seen following the 30 mg/kg dose.

[4] = dose 3× the Vogel MED (30 mg/kg)

SMILES: CC(C)C[C@H](CN)CC(=O)O [Pregabalin, pregabalin, reference compound]
- Screen fall-off, animals of animals tested ([1]; 100 mg/kg PO): 1 of 10
- Screen fall-off, animals of animals tested ([1]; 300 mg/kg PO): 1 of 10
- Percent of Animals Tested With >20 Shock Episodes ([2]; 0.3 mg/kg PO): 0%
- Mean Shock Episodes (1 mA) ([2]; 0.3 mg/kg PO): 5.1 ± 1.0
- Percent of Animals Tested With >20 Shock Episodes ([2]; 1 mg/kg PO): 20%
- Mean Shock Episodes (1 mA) ([2]; 1 mg/kg PO): 15.0 ± 6.3
- Percent of Animals Tested With >20 Shock Episodes ([2]; 3 mg/kg PO): 20%
- Mean Shock Episodes (1 mA) ([2]; 3 mg/kg PO): 10.2 ± 1.6
- Percent of Animals Tested With >20 Shock Episodes ([2]; 10 mg/kg PO): 20%
- Mean Shock Episodes (1 mA) ([2]; 10 mg/kg PO): 14.7 ± 4.0
- Shock episodes (time-course) ([2]; 10 mg/kg, 1 hr post treatment): 65.8 ± 10.8
- Shock episodes (time-course) ([2]; 10 mg/kg, 2 hr post treatment): 73.3 ± 13.7
- Shock episodes (time-course) ([2]; 10 mg/kg, 4 hr post treatment): 75.1 ± 13.7
- Shock episodes (time-course) ([2]; 10 mg/kg, 6 hr post treatment): 54.9 ± 14.7
- Shock episodes (time-course) ([2]; 10 mg/kg, 8 hr post treatment): 41.9 ± 13.5
- Percent of Animals Tested With >20 Shock Episodes ([2]; 30 mg/kg PO): 50%
- Mean Shock Episodes (1 mA) ([2]; 30 mg/kg PO): 51.0 ± 19.1
- Shock episodes (time-course) ([2]; 30 mg/kg, 30 min. post treatment): 27.7 ± 8.2
- Shock episodes (time-course) ([2]; 30 mg/kg, 1 hr post treatment): 66.5 ± 10
- Shock episodes (time-course) ([2]; 30 mg/kg, 2 hr post treatment): 59.8 ± 9.8
- Shock episodes (time-course) ([2]; 30 mg/kg, 4 hr post treatment): 100.3 ± 12
- Shock episodes (time-course) ([2]; 30 mg/kg, 6 hr post treatment): 39.5 ± 9
- Shock episodes (time-course) ([2]; 30 mg/kg, 8 hr post treatment): 30.4 ± 9.1
- Percent of Animals Tested With >20 Shock Episodes ([2]; 100 mg/kg PO): 50%
- Mean Shock Episodes (1 mA) ([2]; 100 mg/kg PO): 40.7 ± 11.1
- Time of maximal effects after treatment ([2]; MED dose 10 mg/kg): 2 to 4 h
- Activity maintained through [2, 4]: 8 h
- Onset of activity after treatment [2, 4]: 1 h
- Time of peak activity post treatment [2, 4]: 6 h
- MED for anti-conflict activity ([2]; oral, 2 hour pretreatment, rats): 10 mg/kg
- Immobility, % Percent of control ([3]; 3 mg/kg PO): 102.9 ± 9.5%
- Power of Movement, % Percent of control ([3]; 3 mg/kg PO): 99.1 ± 22.9%
- Immobility, % Percent of control ([3]; 10 mg/kg PO): 134.5 ± 9.9 %
- Power of Movement, % Percent of control ([3]; 10 mg/kg PO): 89.6 ± 18.7%
- Immobility, % Percent of control ([3]; 30 mg/kg PO): 136.9 ± 7.1 %
- Power of Movement, % Percent of control ([3]; 30 mg/kg PO): 96.4 ± 22.7%
- Immobility, % Percent of control ([3]; 100 mg/kg PO): 152.7 ± 6.6 %
- Power of Movement, % Percent of control ([3]; 100 mg/kg PO): 73.4 ± 12.5%
- Immobility, % Percent of control ([3]; 300 mg/kg PO): 160.5 ± 7.4 %
- Power of Movement, % Percent of control ([3]; 300 mg/kg PO): 76.6 ± 12.2%
